From patent US8916549B2, “Thienooxazepine derivative” (Takeda Pharmaceutical Company Limited, priority 2009, dated 2014)
Where a name gives a salt, the structure may show the parent alone.

target: serotonin 5-HT2C receptor (isoform type VSV, stably expressing CHO cell) (Homo sapiens, UniProt P28335, I156V/I160V/N158S); test: cell-based; settings: read-out: ratio to maximum response by 5-HT (1 μM)
Sequence (P28335 33-458 I156V/N158S/I160V limits assumed): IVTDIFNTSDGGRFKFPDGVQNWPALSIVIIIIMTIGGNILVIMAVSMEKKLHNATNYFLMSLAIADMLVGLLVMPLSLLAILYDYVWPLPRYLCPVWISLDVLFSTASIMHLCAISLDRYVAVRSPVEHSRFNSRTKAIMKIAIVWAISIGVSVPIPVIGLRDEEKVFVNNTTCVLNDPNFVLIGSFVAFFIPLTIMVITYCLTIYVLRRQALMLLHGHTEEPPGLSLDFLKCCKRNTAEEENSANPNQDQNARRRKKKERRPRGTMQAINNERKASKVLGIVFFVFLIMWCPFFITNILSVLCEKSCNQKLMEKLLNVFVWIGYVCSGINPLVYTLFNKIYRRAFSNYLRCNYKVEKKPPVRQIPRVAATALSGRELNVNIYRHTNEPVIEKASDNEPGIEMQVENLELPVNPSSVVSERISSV

Compound	Emax [%]
Fc1cccc(-c2csc3c2OCCNC3)c1 [Example 2, 8-(3-fluorophenyl)-2,3,4,5-tetrahydrothieno[2,3-f][1,4]oxazepine 1 hydrochloride]	101
c1sc2c(c1C1CC1)OCCNC2 [Example 3, 8-cyclopropyl-2,3,4,5-tetrahydrothieno[2,3-f][1,4]oxazepine 1 hydrochloride]	98
CC(C)c1csc2c1OCCNC2 [Example 4, 8-(1-methylethyl)-2,3,4,5-tetrahydrothieno[2,3-f][1,4]oxazepine 1 hydrochloride]	99
c1sc2c(c1C1CCC1)OCCNC2 [Example 5, 8-cyclobutyl-2,3,4,5-tetrahydrothieno[2,3-f][1,4]oxazepine 1 hydrochloride]	107
COc1cccc(-c2csc3c2OC(C)CNC3)c1 (stereo not drawn) [Example 6, 8-(3-methoxyphenyl)-2-methyl-2,3,4,5-tetrahydrothieno[2,3-f][1,4]oxazepine 1 hydrochloride]	97
C[C@H]1CNCc2scc(-c3cccc(F)c3)c2O1 [Example 12, (2S)-8-(3-fluorophenyl)-2-methyl-2,3,4,5-tetrahydrothieno[2,3-f][1,4]oxazepine 1 hydrochloride]	101
C[C@H]1CNCc2scc(C3CC3)c2O1 [Example 14, (2S)-8-cyclopropyl-2-methyl-2,3,4,5-tetrahydrothieno[2,3-f][1,4]oxazepine 1 hydrochloride]	100
CC(C)c1csc2c1O[C@@H](C)CNC2 [Example 15, (2S)-2-methyl-8-(1-methylethyl)-2,3,4,5-tetrahydrothieno[2,3-f][1,4]oxazepine 1 hydrochloride]	96
CCCc1csc2c1O[C@@H](C)CNC2 [Example 16, (2S)-2-methyl-8-propyl-2,3,4,5-tetrahydrothieno[2,3-f][1,4]oxazepine 1 hydrochloride]	97
Cc1sc2c(c1C1CC1)OCCNC2 [Example 17, 8-cyclopropyl-7-methyl-2,3,4,5-tetrahydrothieno[2,3-f][1,4]oxazepine 1 hydrochloride]	91
CC(c1csc2c1OCCNC2)C(F)(F)F (stereo not drawn) [Example 20, 8-(2,2,2-trifluoro-1-methylethyl)-2,3,4,5-tetrahydrothieno[2,3-f][1,4]oxazepine 1 hydrochloride]	85
CC(c1csc2c1O[C@@H](C)CNC2)C(F)(F)F (stereo partly drawn) [Example 21, (2S)-2-methyl-8-(2,2,2-trifluoro-1-methylethyl)-2,3,4,5-tetrahydrothieno[2,3-f][1,4]oxazepine 1 hydrochloride]	94
